± gives the expanded uncertainty stated by the source.
Test: mn = molality of the nth substance listed, in mol/kg
Details: 101 kPa, Liquid; for mass density: Vibrating tube method; for speed of sound: Sing-around technique in a fixed-path interferometer

CCCC[N+](CCCC)(CCCC)CCCC.[Br-] [tetrabutylammonium bromide] + O
Details	mass density, 298.15 K [kg/m3]	mass density, 303.15 K [kg/m3]	speed of sound, 303.15 K [m/s]
m1 = 0.0015	997.085 ± 0.11	995.686 ± 0.11	1509.6 ± 1.2
m1 = 0.0047	997.156 ± 0.11	995.754 ± 0.11	1510.3 ± 1.2
m1 = 0.0061	997.187 ± 0.11	995.785 ± 0.11	1510.7 ± 1.2
m1 = 0.013	997.335 ± 0.11	995.926 ± 0.11	1512.1 ± 1.2
m1 = 0.0183	997.458 ± 0.11	996.041 ± 0.11	1513.3 ± 1.2
m1 = 0.026	997.626 ± 0.11	996.204 ± 0.11	1514.9 ± 1.2
m1 = 0.031	997.744 ± 0.11	996.318 ± 0.11	1516.1 ± 1.2
m1 = 0.0492	998.14 ± 0.11	996.704 ± 0.11	1519.8 ± 1.2
m1 = 0.0796	998.844 ± 0.11	997.37 ± 0.11	1526.2 ± 1.2
m1 = 0.0997	999.297 ± 0.11	997.802 ± 0.11	1530.3 ± 1.2
m1 = 0.1118	999.574 ± 0.11	998.068 ± 0.11	1532.8 ± 1.2
m1 = 0.1291	999.966 ± 0.11	998.443 ± 0.11	1536.2 ± 1.2
m1 = 0.1464	1000.37 ± 0.11	998.826 ± 0.11	1539.7 ± 1.2
m1 = 0.1626	1000.73 ± 0.11	999.177 ± 0.11	1542.8 ± 1.2
m1 = 0.1952	1001.49 ± 0.11	999.897 ± 0.11	1548.9 ± 1.2
m1 = 0.2309	1002.3 ± 0.12	1000.67 ± 0.12	1555.6 ± 1.2
m1 = 0.2732	1003.27 ± 0.12	1001.6 ± 0.12	1563.3 ± 1.2
m1 = 0.3073	1004.05 ± 0.12	1002.33 ± 0.12	1569.3 ± 1.2
m1 = 0.3449	1004.88 ± 0.12	1003.12 ± 0.12	1575.8 ± 1.2
m1 = 0.5437	1009.3 ± 0.15	1007.29 ± 0.15	1606.7 ± 1.3
m1 = 0.7712	1014.01 ± 0.19	1011.73 ± 0.19	1635.7 ± 1.3

Source: the NIST ThermoML archive (doi:10.1016/j.fluid.2016.02.035)
